# Assay results taken from PubChem BioAssay (NCI).
#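 In this assay, cells in 96-well plates receive the compound at five concentrations for 48 hours. Endpoints are linearly interpolated between the surrounding concentrations. GI50 marks 50% less growth. Definition used: TGI = concentration required for complete inhibition of growth.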
# Legend:
# Test in all cases: DTP human tumour cell line panel, 48 h
# K-562 leukemia = test system: K-562 leukemia
# HL-60(TB) leukemia = test system: HL-60(TB) leukemia
# SN12C renal = test system: SN12C renal
# TK-10 renal = test system: TK-10 renal
# NCI-H522 lung = test system: NCI-H522 lung
# SW-620 colon = test system: SW-620 colon
# SF-539 CNS = test system: SF-539 CNS
# MDA-MB-231 breast = test system: MDA-MB-231 breast
# SK-MEL-28 melanoma = test system: SK-MEL-28 melanoma
# RPMI-8226 leukemia = test system: RPMI-8226 leukemia
# IGROV1 ovarian = test system: IGROV1 ovarian
# DU-145 prostate = test system: DU-145 prostate
# HOP-92 NSCLC = test system: HOP-92 NSCLC
# 786-0 renal = test system: 786-0 renal
# EKVX NSCLC = test system: EKVX NSCLC
# HCT-15 colon = test system: HCT-15 colon
# HS 578T breast = test system: HS 578T breast
# HT29 colon = test system: HT29 colon
# MDA-N = test system: MDA-N
# MALME-3M melanoma = test system: MALME-3M melanoma
# NCI-H226 lung = test system: NCI-H226 lung
# SK-MEL-2 melanoma = test system: SK-MEL-2 melanoma
# OVCAR-5 ovarian = test system: OVCAR-5 ovarian
# CAKI-1 renal = test system: CAKI-1 renal
# UACC-257 melanoma = test system: UACC-257 melanoma
# MDA-MB-435 = test system: MDA-MB-435
# UACC-62 melanoma = test system: UACC-62 melanoma
# SNB-75 CNS = test system: SNB-75 CNS
# COLO 205 colon = test system: COLO 205 colon
# M14 melanoma = test system: M14 melanoma
# KM12 colon = test system: KM12 colon
# T-47D breast = test system: T-47D breast
# SR leukemia = test system: SR leukemia
# U251 CNS = test system: U251 CNS
# PC-3 prostate = test system: PC-3 prostate
# NCI/ADR-RES ovarian = test system: NCI/ADR-RES ovarian
# UO-31 renal = test system: UO-31 renal
# MCF7 breast = test system: MCF7 breast
# BT-549 breast = test system: BT-549 breast
# OVCAR-3 ovarian = test system: OVCAR-3 ovarian
# OVCAR-4 ovarian = test system: OVCAR-4 ovarian
# OVCAR-8 ovarian = test system: OVCAR-8 ovarian
# LOX IMVI melanoma = test system: LOX IMVI melanoma
# SK-OV-3 ovarian = test system: SK-OV-3 ovarian
# HOP-62 NSCLC = test system: HOP-62 NSCLC
# HCT-116 colon = test system: HCT-116 colon
# CCRF-CEM leukemia = test system: CCRF-CEM leukemia
# SK-MEL-5 melanoma = test system: SK-MEL-5 melanoma
# RXF 393 renal = test system: RXF 393 renal
# A549 NSCLC = test system: A549 NSCLC
# HCC-2998 colon = test system: HCC-2998 colon
# SNB-19 CNS = test system: SNB-19 CNS
# SF-268 CNS = test system: SF-268 CNS
# NCI-H23 lung = test system: NCI-H23 lung
# NCI-H460 lung = test system: NCI-H460 lung
# MOLT-4 leukemia = test system: MOLT-4 leukemia
# ACHN renal = test system: ACHN renal
# SF-295 CNS = test system: SF-295 CNS
compound,measurement,setting,value
CN=C(NN)NS(=O)(=O)c1cc(C)c(Cl)cc1S,TGI,K-562 leukemia,> 100 µM
same,TGI,HL-60(TB) leukemia,> 100 µM
same,TGI,SN12C renal,> 100 µM
same,TGI,TK-10 renal,> 100 µM
same,TGI,NCI-H522 lung,97.7 µM
same,TGI,SW-620 colon,> 100 µM
same,TGI,SF-539 CNS,> 100 µM
same,TGI,MDA-MB-231 breast,> 100 µM
same,TGI,SK-MEL-28 melanoma,> 100 µM
same,TGI,RPMI-8226 leukemia,> 100 µM
same,TGI,IGROV1 ovarian,> 100 µM
same,TGI,DU-145 prostate,> 100 µM
same,TGI,HOP-92 NSCLC,> 100 µM
same,TGI,786-0 renal,> 100 µM
same,TGI,EKVX NSCLC,> 100 µM
same,TGI,HCT-15 colon,> 100 µM
same,TGI,HS 578T breast,75.3 µM
same,TGI,HT29 colon,> 100 µM
same,TGI,MDA-N,> 100 µM
same,TGI,MALME-3M melanoma,> 100 µM
same,TGI,NCI-H226 lung,> 100 µM
same,TGI,SK-MEL-2 melanoma,> 100 µM
same,TGI,OVCAR-5 ovarian,> 100 µM
same,TGI,CAKI-1 renal,> 100 µM
same,TGI,UACC-257 melanoma,> 100 µM
same,TGI,MDA-MB-435,> 100 µM
same,TGI,UACC-62 melanoma,> 100 µM
same,TGI,SNB-75 CNS,> 100 µM
same,TGI,COLO 205 colon,> 100 µM
same,TGI,M14 melanoma,> 100 µM
same,TGI,KM12 colon,> 100 µM
same,TGI,T-47D breast,> 100 µM
same,TGI,SR leukemia,> 100 µM
same,TGI,U251 CNS,> 100 µM
same,TGI,PC-3 prostate,> 100 µM
same,TGI,NCI/ADR-RES ovarian,> 100 µM
same,TGI,UO-31 renal,74.7 µM
same,TGI,MCF7 breast,> 100 µM
same,TGI,BT-549 breast,> 100 µM
same,TGI,OVCAR-3 ovarian,> 100 µM
same,TGI,OVCAR-4 ovarian,> 100 µM
same,TGI,OVCAR-8 ovarian,> 100 µM
same,TGI,LOX IMVI melanoma,> 100 µM
same,TGI,SK-OV-3 ovarian,> 100 µM
same,TGI,HOP-62 NSCLC,> 100 µM
same,TGI,HCT-116 colon,> 100 µM
same,TGI,CCRF-CEM leukemia,> 100 µM
same,TGI,SK-MEL-5 melanoma,> 100 µM
same,TGI,RXF 393 renal,> 100 µM
same,TGI,A549 NSCLC,> 100 µM
same,TGI,HCC-2998 colon,> 100 µM
same,TGI,SNB-19 CNS,> 100 µM
same,TGI,SF-268 CNS,> 100 µM
COc1cc(O)c2c(=O)c(OC)c(-c3ccc(OC)c(OC)c3)oc2c1.[Co],GI50,K-562 leukemia,75.5 µM
same,TGI,K-562 leukemia,> 100 µM
same,TGI,HL-60(TB) leukemia,> 100 µM
same,TGI,SN12C renal,> 100 µM
same,TGI,TK-10 renal,> 100 µM
same,TGI,NCI-H522 lung,35.1 µM
same,TGI,SW-620 colon,> 100 µM
same,GI50,NCI-H23 lung,> 100 µM
same,TGI,NCI-H23 lung,> 100 µM
same,TGI,SF-539 CNS,> 100 µM
same,GI50,MDA-MB-231 breast,18.1 µM
same,TGI,MDA-MB-231 breast,> 100 µM
same,GI50,SK-MEL-28 melanoma,> 100 µM
same,TGI,SK-MEL-28 melanoma,> 100 µM
same,TGI,NCI-H460 lung,> 100 µM
same,TGI,RPMI-8226 leukemia,> 100 µM
same,GI50,IGROV1 ovarian,> 100 µM
same,TGI,IGROV1 ovarian,> 100 µM
same,GI50,DU-145 prostate,> 100 µM
same,TGI,DU-145 prostate,> 100 µM
same,GI50,HOP-92 NSCLC,31.8 µM
same,TGI,HOP-92 NSCLC,> 100 µM
same,GI50,MOLT-4 leukemia,9.92 µM
same,TGI,MOLT-4 leukemia,> 100 µM
same,TGI,786-0 renal,> 100 µM
same,GI50,EKVX NSCLC,> 100 µM
same,TGI,EKVX NSCLC,> 100 µM
same,TGI,HS 578T breast,> 100 µM
same,GI50,HT29 colon,> 100 µM
same,TGI,HT29 colon,> 100 µM
same,TGI,MDA-N,> 100 µM
same,GI50,MALME-3M melanoma,51.4 µM
same,TGI,MALME-3M melanoma,> 100 µM
same,TGI,NCI-H226 lung,> 100 µM
same,GI50,OVCAR-5 ovarian,> 100 µM
same,TGI,OVCAR-5 ovarian,> 100 µM
same,TGI,CAKI-1 renal,> 100 µM
same,TGI,MDA-MB-435,> 100 µM
same,GI50,UACC-62 melanoma,32.3 µM
same,TGI,UACC-62 melanoma,> 100 µM
same,TGI,SNB-75 CNS,> 100 µM
same,TGI,COLO 205 colon,> 100 µM
same,GI50,M14 melanoma,> 100 µM
same,TGI,M14 melanoma,> 100 µM
same,GI50,KM12 colon,> 100 µM
same,TGI,KM12 colon,> 100 µM
same,GI50,T-47D breast,10.7 µM
same,TGI,T-47D breast,> 100 µM
same,GI50,SR leukemia,5.29 µM
same,TGI,SR leukemia,> 100 µM
same,TGI,U251 CNS,> 100 µM
same,GI50,PC-3 prostate,66.7 µM
same,TGI,PC-3 prostate,> 100 µM
same,GI50,NCI/ADR-RES ovarian,> 100 µM
same,TGI,NCI/ADR-RES ovarian,> 100 µM
same,TGI,UO-31 renal,> 100 µM
same,GI50,MCF7 breast,> 100 µM
same,TGI,MCF7 breast,> 100 µM
same,TGI,BT-549 breast,> 100 µM
same,GI50,OVCAR-3 ovarian,> 100 µM
same,TGI,OVCAR-3 ovarian,> 100 µM
same,GI50,OVCAR-4 ovarian,13.1 µM
same,TGI,OVCAR-4 ovarian,> 100 µM
same,GI50,OVCAR-8 ovarian,> 100 µM
same,TGI,OVCAR-8 ovarian,> 100 µM
same,GI50,LOX IMVI melanoma,> 100 µM
same,TGI,LOX IMVI melanoma,> 100 µM
same,TGI,SK-OV-3 ovarian,> 100 µM
same,GI50,HOP-62 NSCLC,34.5 µM
same,TGI,HOP-62 NSCLC,> 100 µM
same,GI50,HCT-116 colon,61.6 µM
same,TGI,HCT-116 colon,> 100 µM
same,GI50,ACHN renal,56.9 µM
same,TGI,ACHN renal,> 100 µM
same,GI50,SK-MEL-5 melanoma,70.3 µM
same,TGI,SK-MEL-5 melanoma,> 100 µM
same,GI50,SF-295 CNS,16.2 µM
same,TGI,SF-295 CNS,> 100 µM
same,TGI,RXF 393 renal,> 100 µM
same,TGI,A549 NSCLC,> 100 µM
same,GI50,HCC-2998 colon,> 100 µM
same,TGI,HCC-2998 colon,> 100 µM
same,GI50,SF-268 CNS,38.4 µM
same,TGI,SF-268 CNS,> 100 µM
